Measured values published in paper PMC5814047, “Peptidic inhibitors of insulin-degrading enzyme with potential for dermatological applications discovered via phage display” (PLoS ONE, 2018).
“And” between values parts separate entries of the source, which are not always exact repeats. Equal entries are not always repeated. Bridge positions count the residues as written; N and C are the ends. Peptide text beside a SMILES is read from it.

Assays:
Format in all cases: biochemical
[1] = system: multiple peptidases of different protease classes; assay: Activity on additional proteases, FAßB degradation assay; design: concentration or dose not given beside the values; settings: for % activity relative to DMSO-only and no-enzyme controls, Mean: N 8; for % activity relative to DMSO-only and no-enzyme controls, single runs: each run mean of quadruplicates
Method: (§1) IDE activity was quantified by monitoring the degradation of Mca-[…](Dnp) (FRET1, 5 μM), fluoresceinated and biotinylated amyloid ß-protein (FAßB; 500 nM) or recombinant human insulin (50 nM) in PBS supplemented with 0.05% BSA. FRET1 degradation was measured by changes in fluorescence (λex = 340 nm, λem = 420 nm); FAßB degradation was monitored by fluorescence polarization (λex = 488 nm, λem = 525 nm), as described; and insulin degradation was quantified by ELISA. In vitro activity assays incorporated recombinant human IDE (1 nM) purified from bacteria. For quantitation of insulin degradation in primary murine skin fibroblasts, cells (1 x 10^5/well) were plated in 96-well plates and maintained in DMEM supplemented with 10% fetal bovine serum (FBS), 2mM glutamine, penicillin and streptomycin. After addition of insulin (10 nM or 100 nM), samples of conditioned medium were removed daily and quickly frozen, then insulin levels were quantified in parallel by ELISA according to manufacturer’s recommendations (Crystal Chem, Downers Grove, IL, USA). Assessment of the activity of P12-3A against a variety of matrix-metalloproteases was conducted using the Matrix Metalloproteinase (MMP) Inhibitor Profiling Kit, Fluorometric RED (Enzo Life Sciences, Inc., Farmingdale, NY, USA) according to manufacturer’s recommendations using the broad-spectrum MMP inhibitor, NNGH, as a positive control.
Supplementary file pone.0193101.s004.tif: S4 Fig Selectivity of P12-3A for IDE vis-à-vis other proteases. Activity of P12-3A (100 μM) against (A) multiple matrix-metalloproteases (MMPs) and (B) multiple peptidases of different protease classes. […] Data are mean ± SD, n = 8–16 per group. P<0.05 by 2-tailed Student’s t-test. […] See Materials and Methods for details. NEP, neprilysin; mCatD, murine cathepsin D; hCatD, human cathepsin D. (TIF) Click here for additional data file.

IDE = target: T1, IDE (Homo sapiens, UniProt P14735); assay: IDE activity assay, FAßB (amyloid ß-protein) degradation (fluorescence polarization)
T1 construct: made in house; host or cells: bacteria
T1 sequence (P14735 1-1019): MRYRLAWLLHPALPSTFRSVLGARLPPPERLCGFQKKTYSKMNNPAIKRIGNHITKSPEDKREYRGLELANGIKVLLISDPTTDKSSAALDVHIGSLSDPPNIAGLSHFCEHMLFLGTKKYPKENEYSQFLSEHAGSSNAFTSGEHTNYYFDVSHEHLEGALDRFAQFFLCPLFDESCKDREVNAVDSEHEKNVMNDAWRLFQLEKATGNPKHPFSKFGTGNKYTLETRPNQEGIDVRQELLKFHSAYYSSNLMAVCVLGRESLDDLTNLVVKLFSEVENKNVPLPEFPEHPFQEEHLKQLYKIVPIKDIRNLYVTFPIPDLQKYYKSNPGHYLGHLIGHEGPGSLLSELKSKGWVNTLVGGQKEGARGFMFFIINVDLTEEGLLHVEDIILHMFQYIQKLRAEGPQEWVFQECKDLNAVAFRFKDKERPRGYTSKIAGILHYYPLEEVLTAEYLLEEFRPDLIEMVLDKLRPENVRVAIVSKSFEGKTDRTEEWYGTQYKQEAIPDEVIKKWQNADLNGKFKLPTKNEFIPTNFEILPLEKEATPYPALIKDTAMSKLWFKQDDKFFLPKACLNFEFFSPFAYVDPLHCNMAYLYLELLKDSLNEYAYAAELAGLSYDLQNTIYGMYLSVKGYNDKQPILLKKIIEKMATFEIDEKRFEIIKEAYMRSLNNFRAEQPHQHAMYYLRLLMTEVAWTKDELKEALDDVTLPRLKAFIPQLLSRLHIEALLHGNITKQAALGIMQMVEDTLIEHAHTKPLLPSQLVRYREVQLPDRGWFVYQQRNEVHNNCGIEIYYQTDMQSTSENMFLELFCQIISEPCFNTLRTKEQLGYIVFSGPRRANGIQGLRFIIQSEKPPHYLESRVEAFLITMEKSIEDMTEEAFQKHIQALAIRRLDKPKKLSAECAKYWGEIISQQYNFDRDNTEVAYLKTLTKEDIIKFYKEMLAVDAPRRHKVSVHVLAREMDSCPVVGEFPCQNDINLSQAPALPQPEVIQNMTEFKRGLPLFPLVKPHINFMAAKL
Method: Taken together with the potency of all peptides against insulin (Table 1), we concluded that P12-3A represented the best inhibitor for further studies, and a highly purified, deliberately cyclized version (Fig 3A) was synthesized. […] Based on its potency, stability and selectivity for IDE, P12-3A was selected for use in downstream assays.
as §1

MMP-7 = target: T2, MMP-7 (Homo sapiens, UniProt P09237); assay: MMP Inhibitor Profiling Kit, MMP-7; settings: P12-3A 100 μM
T2 construct: purchased Enzo Life Sciences, Inc
T2 sequence (P09237 95-267): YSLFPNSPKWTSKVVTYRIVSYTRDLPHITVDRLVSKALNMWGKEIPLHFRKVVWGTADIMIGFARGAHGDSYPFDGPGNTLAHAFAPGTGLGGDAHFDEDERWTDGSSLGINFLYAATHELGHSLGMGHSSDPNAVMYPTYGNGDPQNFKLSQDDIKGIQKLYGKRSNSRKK
Method: as §1, with “control. […]” for “control.”

% activity relative to DMSO-only and no-enzyme controls, Mean ([1]; Plasmin): 102.2%
% activity relative to DMSO-only and no-enzyme controls, Mean ([1]; Trypsin): 97.0%
remaining activity at 0.0005 µM (IDE; FAßB, P12-3A 0.0005 uM, Replicates 4-6, read-out: Percent Activity (normalized source data)): 103%
remaining activity at 0.0016 µM (IDE; FAßB, P12-3A 0.0016 uM, Replicates 4-6, read-out: Percent Activity (normalized source data)): 102%
remaining activity at 0.005 µM (IDE; FAßB, P12-3A 0.005 uM, Replicates 4-6, read-out: Percent Activity (normalized source data)): 103%
remaining activity at 0.016 µM (IDE; FAßB, P12-3A 0.016 uM, Replicates 4-6, read-out: Percent Activity (normalized source data)): 77.6%
remaining activity at 0.05 µM (IDE; FAßB, P12-3A 0.050 uM, Replicates 4-6, read-out: Percent Activity (normalized source data)): 88.7%
remaining activity at 0.12 µM (IDE; FAßB, P12-3A 0.12 uM, Replicates 1-3, read-out: Percent Activity (normalized source data)): 96.6%
remaining activity at 0.16 µM (IDE; FAßB, P12-3A 0.16 uM, Replicates 4-6, read-out: Percent Activity (normalized source data)): 93.1%
remaining activity at 0.24 µM (IDE; FAßB, P12-3A 0.24 uM, Replicates 1-3, read-out: Percent Activity (normalized source data)): 79.9%
remaining activity at 0.49 µM (IDE; FAßB, P12-3A 0.49 uM, Replicates 1-3, read-out: Percent Activity (normalized source data)): 73.7%
remaining activity at 0.5 µM (IDE; FAßB, P12-3A 0.50 uM, Replicates 4-6, read-out: Percent Activity (normalized source data)): 85.8%
remaining activity at 0.98 µM (IDE; FAßB, P12-3A 0.98 uM, Replicates 1-3, read-out: Percent Activity (normalized source data)): 66.9%
remaining activity at 1.6 µM (IDE; FAßB, P12-3A 1.6 uM, Replicates 4-6, read-out: Percent Activity (normalized source data)): 61.7%
remaining activity at 3.91 µM (IDE; FAßB, P12-3A 3.91 uM, Replicates 1-3, read-out: Percent Activity (normalized source data)): 48.4%
remaining activity at 5 µM (IDE; FAßB, P12-3A 5.0 uM, Replicates 4-6, read-out: Percent Activity (normalized source data)): 48.4%
remaining activity at 7.81 µM (IDE; FAßB, P12-3A 7.81 uM, Replicates 1-3, read-out: Percent Activity (normalized source data)): 43.4%
remaining activity at 15.6 µM (IDE; FAßB, P12-3A 15.6 uM, Replicates 1-3, read-out: Percent Activity (normalized source data)): 45.5%
remaining activity at 31.2 µM (IDE; FAßB, P12-3A 31.2 uM, Replicates 1-3, read-out: Percent Activity (normalized source data)): 38.5%
remaining activity at 62.5 µM (IDE; FAßB, P12-3A 62.5 uM, Replicates 1-3, read-out: Percent Activity (normalized source data)): 10.9%
remaining activity at 250 µM (IDE; FAßB, P12-3A 250 uM, Replicates 1-3, read-out: Percent Activity (normalized source data)): 9.54%
inhibition at 100 µM (MMP-7): ~18%
SMILES: CC(C)C[C@H](NC(=O)[C@H](CO)NC(=O)[C@@H](N)CCC(N)=O)C(=O)N1CCC[C@H]1C(=O)N[C@@H](Cc1c[nH]c2ccccc12)C(=O)N[C@H]1CSSC[C@@H](C(=O)N[C@H](C(=O)N[C@H](C(N)=O)[C@@H](C)O)C(C)C)NC(=O)[C@H](Cc2c[nH]cn2)NC(=O)[C@@H]2CCCN2C(=O)[C@H](Cc2ccc(O)cc2)NC1=O [P12-3A] (H-QSLPWCYPHCVT-NH2; disulfide 6-10 (inferred))
% activity relative to DMSO-only and no-enzyme controls, single runs ([1]; Plasmin): 81.4012% and 90.4633% and 101.45% and 148.471% and 93.7572% and 91.0067% and 95.3568% and 115.381%
% activity relative to DMSO-only and no-enzyme controls, single runs ([1]; Trypsin): 89.0897% and 97.7425% and 98.0394% and 101.611% and 90.6127% and 100.837% and 98.0681% and 99.896%
inhibition of IDE in the selectivity panel (IDE; P12-3A 100 μM, S4 Fig): significant inhibition was observed exclusively for IDE
